From patent US7754896B2, “Indol-alanine derivatives as selective S1P4-agonists” (Novartis AG, priority 2004, dated 2010)

Molecular target: T1, S1P1 (Homo sapiens, UniProt P21453)
T1 construct: expressed in transfected cells
Assay: GTPγS binding assay, S1P1
Format: biochemical
Conditions: CHO cells expressing S1P1
From the text: Human S1P1 (GenBank™ accession number M31210) and S1P3 (GenBank™ accession number X83864) cDNA containing the myc sequence in front to the human S1P1 and S1P3 sequences are inserted in the pcDNA 3.1 vector. The vectors are sequenced to completion to confirm the correctness of the construct. The human S1P2 (GI: 4090955, TREMBL: 0195136) is cloned by a PCR based method. Lung cDNA (marathon cDNA) is obtained (BD Biosciences Chontech, Palo Alto, Calif. 94303, USA). Following oligonucleotides are used for the PCR reaction: forward primer CACCATGGGCAGCTTGTACTCGGAGTACCT GM CCC CAA CM GGT CCA G (1 to 45, GenBank™ accession number AF034780) and reverse primer 5′-GATTCAGACCACCGTGTTGCCCTCCAG (1062 to 1039, GenBank™ accession number AF034780), the initiation of the translation (ATG) and the stop codon are underlined. […] The amplified product of around 1100 bp is analyzed by standard agarose gel-electrophoresis. […]
Membrane proteins are prepared from wild type CHO-K1 and the CHO cell clones expressing human S1P4. […] The protein concentration is determined using the Bio Rad Protein Assay and human IgG as standard. […]

T1 sequence (P21453 whole entry): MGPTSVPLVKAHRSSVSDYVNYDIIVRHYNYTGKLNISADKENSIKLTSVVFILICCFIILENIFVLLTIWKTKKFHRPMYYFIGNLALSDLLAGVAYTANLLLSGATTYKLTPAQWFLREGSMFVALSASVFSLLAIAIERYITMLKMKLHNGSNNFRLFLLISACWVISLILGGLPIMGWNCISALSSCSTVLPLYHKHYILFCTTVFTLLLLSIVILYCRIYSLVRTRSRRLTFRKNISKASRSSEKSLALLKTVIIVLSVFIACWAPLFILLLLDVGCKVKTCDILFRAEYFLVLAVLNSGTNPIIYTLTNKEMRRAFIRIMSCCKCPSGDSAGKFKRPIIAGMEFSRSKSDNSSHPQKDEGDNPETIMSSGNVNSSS

## NC(CNC(=O)c1cc2c(-c3ccccc3Cc3ccccc3)cccc2[nH]1)C(=O)O (stereo not shown) [Example 2]
  EC50: > 10 µM
